# Test results: patent US20030096733A1, “Novel drug targets for arthritis” (Omnio AB, priority 2001, published 2003)
# Where a name gives a salt, the structure may show the parent alone. Residues, ends and D or L forms follow the SMILES beside them.
# B1: α2AP: single-chain glycoprotein, physiological inhibitor of plasmin (protein, UniProt P08697 40-491, looked up)
# Alpha-2-antiplasmin: NQEQVSPLTLLKLGNQEPGGQTALKSPPGVCSRDPTPEQTHRLARAMMAFTADLFSLVAQTSTCPNLILSPLSVALALSHLALGAQNHTLQRLQQVLHAGSGPCLPHLLSRLCQDLGPGAFRLAARMYLQKGFPIKEDFLEQSEQLFGAKPVSLTGKQEDDLANINQWVKEATEGKIQEFLSGLPEDTVLLLLNAIHFQGFWRNKFDPSLTQRDSFHLDEQFTVPVEMMQARTYPLRWFLLEQPEIQVAHFPFKNNMSFVVLVPTHFEWNVSQVLANLSWDTLHPPLVWERPTKVRLPKLYLKHQMDLVATLSQLGLQELFQAPDLRGISEQSLVVSGVQHQSTLELSEVGVEAAAATSIAMSRMSLSSFSVNRPFLFFIFEDTTGLPLFVGSVRNPNPSAPRELKEQQDSPGNKDFLQSLKGFPRGDKLFGPDLKLVPPMEEDYPQFGSPK
# B2: Human plasminogen: human plasminogen injected intravenously into plasminogen deficient mice to restore the serum plasminogen level (protein)
# chain: MEHKEVVLLLLLFLKSGQGEPLDDYVNTQGASLFSVTKKQLGAGSIEECAAKCEEDEEFTCRAFQYHSKEQQCVIMAENRKSSIIIRMRDVVLFEKKVYLSECKTGNGKNYRGTMSKTKNGITCQKWSSTSPHRPRFSPATHPSEGLEENYCRNPDNDPQGPWCYTTDPEKRYDYCDILECEEECMHCSGENYDGKISKTMSGLECQAWDSQSPHAHGYIPSKFPNKNLKKNYCRNPDRELRPWCFTTDPNKRWELCDIPRCTTPPPSSGPTYQCLKGTGENYRGNVAVTVSGHTCQHWSAQTPHTHNRTPENFPCKNLDENYCRNPDGKRAPWCHTTNSQVRWEYCKIPSCDSSPVSTEQLAPTAPPELTPVVQDCYHGDGQSYRGTSSTTTTGKKCQSWSSMTPHRHQKTPENYPNAGLTMNYCRNPDADKGPWCFTTDPSVRWEYCNLKKCSGTEASVVAPPPVVLLPDVETPSEEDCMFGNGKGYRGKRATTVTGTPCQDWAAQEPHRHSIFTPETNPRAGLEKNYCRNPDGDVGGPWCYTTNPRKLYDYCDVPQCAAPSFDCGKPQVEPKKCPGRVVGGCVAHPHSWPWQVSLRTRFGMHFCGGTLISPEWVLTAAHCLEKSPRPSSYKVILGAHQEVNLEPHVQEIEVSRLFLEPTRKDIALLKLSSPAVITDKVIPACLPSPNYVVADRTECFITGWGETQGTFGAGLLKEAQLPVIENKVCNRYEFLNGRVQSTELCAGHLAGGTDSCQGDSGGPLVCFEKDKYILQGVTSWGLGCARPNKPGVYVRVSRFVTWIEGVMRNN
# Legend:
# human uPA = human uPA (Homo sapiens, UniProt P00749); conditions: read-out: Km for human uPA; chromogenic substrate; cited from earlier work
# CIA-sensitive mice [1] = test: Aprotinin treatment of CIA-sensitive mice, arthritis induced by rat collagen II; assay type: in vivo; conditions: 0.5 ml aprotinin w/o emulsion i.p. every 72 hr; collagen II induction
# Excerpt: (§1) To test potential drug candidates, arthritis is induced in CIA-sensitive mice either by immunization with collagen type II (CIA) or, alternatively, by use of monoclonal antibodies.
# (§2) The present example describes treatment of CIA-sensitive mice with aprotinin (Trasylol; Bayer). Trasylol is an inhibitor of plasmin and thereby, according to the invention, a candidate drug for treating arthritis.
# (§3) Since aprotinin has a rather short half life in mice, a sustained release system for Trasylol is used. An exemplary system based on water/oil (w/o) emulsions where aprotinin is incorporated is described in detail by Bjerregaard et al. (Journal of Controlled release 2001; 71:87-98).
# CIA induction using Collagen-II. Collagen-induced arthritis (CIA) is induced in mice with Rat collagen II, which is prepared from the Swarm chondrosarcoma after pepsin digestion, as previously described (Andersson and Holmdahl, Eur J Immunol 1990;20:1061-1066). Collagen II is dissolved at a concentration of 2 mg/ml in 0.1 M acetic acid and stored at 4° C. Arthritis is induced by intrademal injection at the basis of the tail with […] of […] rat collagen II emulsified with an equal volume of complete Freund's adjuvant (CFA, with Mycobacterium butyricum; Difco, Detroit, Mich.). […]
# CIA-sensitive mice [2] = test: Aprotinin treatment of CIA-sensitive mice, arthritis induced by monoclonal antibodies C1 and M2139; assay type: in vivo; conditions: 0.5 mL aprotinin w/o emulsion i.p. every 72 hours; monoclonal antibody induction
# Excerpt: as §1
# Using monoclonal antibodies to induce CIA has an advantage in that it allows for better control of the induction.
# as §2, §3
# The mice are injected intraperitoneally with 0.5 mL aprotinin emulsion, containing 30% w/w disperse phase with 87 mg aprotinin per ml aqueous phase (corresponding to a dose of approximately 85,000 KIU (“kallikrein-inactivator units”) aprotinin, using a Hamilton syringe 21 G needle. (It is also possible to carry out controlled administration of aprotinin via an osmotic pump.) The injection is repeated every 72 hours.
# CIA induction using monoclonal antibodies. […] The development of arthritis is evaluated with the clinical grading system described in Example 1. […]
# [3] = cited from earlier work
# plasmin [4] = biological target: T1, plasmin (Homo sapiens, UniProt P00747); conditions: chromogenic substrate; cited from earlier work
# T1 construct: After the cleavage, plasmin is an active two-chain disulfide linked molecule
# plasmin [5] = biological target: T1, plasmin; conditions: cited from earlier work
# [6] = test system: plasminogen deficient mice; test: Restoration of plasminogen in plasminogen deficient mice, arthritis induced by collagen II monoclonal antibody cocktail; assay type: in vivo
# Description: Induction of arthritis using monoclonal antibodies directed against collagen type II. A battery of monoclonal antibodies against collagen type II were produced by standard procedures. Induction of arthritis was performed by intravenous injection of a cocktail of two antibodies denoted C1 and M2139 at day 0. Five days later (day 5), lipopolysacchride was injected intraperitoneally to enhance the immune response. The development of arthritis was evaluated with a previously described clinical grading system.
# Clinical grading evaluation of arthritis. The development of arthritis was tracked using a scoring system which defines one inflamed toe or knuckle as 1 point and one inflamed wrist or ankle as […], resulting in a score of 0-15 points for each paw and 0-60 points per mouse. Deformed or swollen without redness is not included in this system.
# Induction of arthritis in plasminogen deficient mice by restoration of plasminogen. 100 μl of human plasminogen, at a concentration of 10 mg/ml, was injected intravenously into the plasminogen deficient mice every 24 hours in order to restore the serum plasminogen level. 12 hours after the first injection of plasminogen, three groups of mice, plg-wildtype, plg-heterozygous, plg-deficient were again injected with plasminogen before arthritis was induced using the Collagen II monoclonal antibody cocktails as described above. The development of arthritis was followed by the clinical scoring system.
molecule,measurement,setting,value
L-pyroglutamyl-glycyl-L-arginine-p-nitroaniline hydrochloride [S-2444],Km,human uPA,90 µM
aprotinin,incidence of the CIA vs control mice,CIA-sensitive mice [1],lower
same,severity of the CIA vs control mice,CIA-sensitive mice [1],lower
same,incidence of the CIA vs control mice,CIA-sensitive mice [2],lower
same,severity of the CIA vs control mice,CIA-sensitive mice [2],lower
same,half life in mice,[3],rather short
"CC(C)C[C@H](NC(=O)[C@H](N)C(C)C)C(=O)N[C@@H](CCCCN)C(=O)Nc1ccc([N+](=O)[O-])cc1 [S-2251, H-D-Valyl-L-leucyl-L-lysine-p-nitroaniline dihydrochloride] (HELM PEPTIDE1{[dV].L.K.[O=[N+]([O-])c1ccc(N[*:1])cc1]}$$$$V2.0)",Km,plasmin [4],300 µM
B1,second-order rate constant of inhibition of plasmin,plasmin [5],above 10^7 M^−1s^−1
B2,plasminogen deficient mice that developed joint inflammation,"[6]; five days after the cocktail injection, human plasminogen injected 12 hours before challenge",3 out of 4
same,Arthritic score,"[6]; plg −/− mice, human plasminogen i.v. every 24 hours, anti-collagen II monoclonal antibody cocktail, clinical score 0-60 points per mouse",6.7 ± 2.9
same,Incidence of RA,"[6]; plg −/− mice, human plasminogen i.v. every 24 hours, anti-collagen II monoclonal antibody cocktail, mice affected/total",3/4
